Laboratory results from ChEMBL document CHEMBL5360655, “Design, Synthesis, and Biological Evaluation of Novel P2X7 Receptor Antagonists for the Treatment of Septic Acute Kidney Injury” (J Med Chem, 2023).
One block for each compound: values may come before it. The source made the active and inactive calls. No cut-off for these calls is given here.

Tests used:
[1] = target: T1, P2X purinoceptor 7 (Homo sapiens, UniProt Q99572); assay: Antagonist activity at human P2X7 receptor expressed in HEK293 cells assessed as inhibition of ATP-induced receptor pore formation by propidium iodide dye uptake based fluorescence analysis; assay type: cell-based
T1 sequence (Q99572 whole entry): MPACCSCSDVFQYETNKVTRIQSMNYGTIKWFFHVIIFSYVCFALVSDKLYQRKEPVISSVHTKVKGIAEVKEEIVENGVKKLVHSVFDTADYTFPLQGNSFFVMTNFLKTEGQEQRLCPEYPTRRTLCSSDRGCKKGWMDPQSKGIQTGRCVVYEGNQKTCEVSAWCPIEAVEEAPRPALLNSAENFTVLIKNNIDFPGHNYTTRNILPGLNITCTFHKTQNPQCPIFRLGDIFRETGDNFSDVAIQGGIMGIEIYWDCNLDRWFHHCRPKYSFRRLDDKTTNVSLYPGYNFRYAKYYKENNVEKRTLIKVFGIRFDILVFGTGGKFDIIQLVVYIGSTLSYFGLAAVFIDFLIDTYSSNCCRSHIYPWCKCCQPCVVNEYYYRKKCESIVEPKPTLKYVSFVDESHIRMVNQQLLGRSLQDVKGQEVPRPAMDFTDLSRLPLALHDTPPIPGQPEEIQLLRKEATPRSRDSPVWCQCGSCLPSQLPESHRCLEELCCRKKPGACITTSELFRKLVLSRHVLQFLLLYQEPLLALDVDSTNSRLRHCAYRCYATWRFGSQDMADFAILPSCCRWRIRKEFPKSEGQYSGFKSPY

[2] = system: THP-1; assay: Cytotoxicity against human THP-1 cells assessed as effect on cell viability at 1 to 4 uM incubated for 2 hrs by CCK8 assay; assay type: toxicity, cell-based; details: thp-1, 2 h, dose 1-4 µM
[3] = Half life in BALB/c mouse at 10 mg/kg, po measured for 24 hrs by LC-MS/MS analysis; assay type: ADME, organism-based; details: in vivo
[4] = Clearance in BALB/c mouse at 10 mg/kg, ip measured for 24 hrs by LC-MS/MS analysis; assay type: ADME, organism-based; details: in vivo
[5] = AUC(0 to t) in BALB/c mouse at 10 mg/kg, po measured for 24 hrs by LC-MS/MS analysis; assay type: ADME, organism-based; set-up: time 24 hrs, dose 10 mg/kg, route po; details: in vivo
[6] = Half life in human liver microsomes; assay type: ADME, Microsome
[7] = Clearance in BALB/c mouse at 10 mg/kg, iv measured for 24 hrs by LC-MS/MS analysis; assay type: ADME, organism-based; details: in vivo
[8] = system: Mus musculus; assay: Reno-protective activity against LPS-induced acute kidney injury C57BL/6J mouse model assessed as decrease in BUN level at 10 mg/kg, ip administered twice at 30 mins prior to LPS challenge and 8 hrs post-LPS challenge and measured at 16 hrs post-LPS challenge; assay type: functional, organism-based; details: time 16.5 hrs
[9] = Tmax in BALB/c mouse at 10 mg/kg, po measured for 24 hrs by LC-MS/MS analysis; assay type: ADME, organism-based; details: in vivo
[10] = AUC(0 to t) in BALB/c mouse at 10 mg/kg, ip measured for 24 hrs by LC-MS/MS analysis; assay type: ADME, organism-based; set-up: dose 10 mg/kg, time 24 hrs, route ip; details: in vivo
[11] = Oral bioavailability in BALB/c mouse at 10 mg/kg measured for 24 hrs by LC-MS/MS analysis; assay type: ADME, organism-based; details: in vivo
[12] = Tmax in BALB/c mouse at 10 mg/kg, iv measured for 24 hrs by LC-MS/MS analysis; assay type: ADME, organism-based; details: in vivo
[13] = system: HEK293; assay: Cytotoxicity against human HEK293 cells transfected with human P2X7 receptor assessed as effect on cell viability at 1 to 4 uM incubated for 2 hrs by CCK8 assay; assay type: toxicity, cell-based; details: hek293, 2 h, dose 1-4 µM
[14] = Cmax in BALB/c mouse at 10 mg/kg, ip measured for 24 hrs by LC-MS/MS analysis; assay type: ADME, organism-based; set-up: dose 10 mg/kg, time 24 hrs, route ip; details: in vivo
[15] = Intrinsic clearance in mouse liver microsomes; assay type: ADME, Microsome; details: read-out: CLH
[16] = Half life in mouse liver microsomes; assay type: ADME, Microsome
[17] = target: T2, P2X purinoceptor 7 (Homo sapiens) (UniProt Q99572); assay: Antagonist activity at human P2X7 receptor expressed in HEK293 cells assessed as inhibition of ATP-induced receptor pore formation at 200 nM by propidium iodide dye uptake based fluorescence analysis; assay type: cell-based; details: filed as antagonist
T2 sequence (whole entry): T1 sequence (Q99572 whole entry)

[18] = target: T1, P2X purinoceptor 7; assay: Antagonist activity at P2X7 receptor in human THP-1 cells assessed as inhibition of ATP-induced IL-1beta secretion pretreated with LPS for 3 hrs followed by incubation with compound for 40 mins followed by treatment with ATP for 1 hr by ELISA; assay type: cell-based
[19] = Clearance in BALB/c mouse at 10 mg/kg, po measured for 24 hrs by LC-MS/MS analysis; assay type: ADME, organism-based; details: in vivo
[20] = target: T3, P2X purinoceptor 7 (Mus musculus) (UniProt Q9Z1M0); assay: Antagonist activity at mouse P2X7 receptor expressed in HEK293 cells assessed as inhibition of ATP-induced receptor pore formation at 1 uM by propidium iodide dye uptake based fluorescence analysis; assay type: cell-based; details: filed as antagonist
T3 sequence (whole entry): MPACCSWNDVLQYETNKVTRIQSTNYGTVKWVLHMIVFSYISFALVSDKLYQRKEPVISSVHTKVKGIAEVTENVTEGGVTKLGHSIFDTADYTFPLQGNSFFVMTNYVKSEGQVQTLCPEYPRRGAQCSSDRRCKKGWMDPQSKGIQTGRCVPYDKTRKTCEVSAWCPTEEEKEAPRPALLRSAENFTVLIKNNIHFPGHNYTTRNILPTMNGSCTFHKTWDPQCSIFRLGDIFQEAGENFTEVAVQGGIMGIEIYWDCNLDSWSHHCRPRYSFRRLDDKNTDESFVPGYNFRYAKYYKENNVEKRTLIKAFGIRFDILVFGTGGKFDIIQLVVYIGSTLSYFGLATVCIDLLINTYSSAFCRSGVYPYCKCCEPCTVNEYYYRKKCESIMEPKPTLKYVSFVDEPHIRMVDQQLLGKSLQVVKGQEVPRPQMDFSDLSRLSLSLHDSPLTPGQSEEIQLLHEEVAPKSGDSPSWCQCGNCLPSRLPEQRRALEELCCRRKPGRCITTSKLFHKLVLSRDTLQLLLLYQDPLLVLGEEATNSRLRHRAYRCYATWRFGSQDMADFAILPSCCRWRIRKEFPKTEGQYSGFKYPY

[21] = Half life in BALB/c mouse at 10 mg/kg, iv measured for 24 hrs by LC-MS/MS analysis; assay type: ADME, organism-based; details: in vivo
[22] = target: T3, P2X purinoceptor 7 (Mus musculus); assay: Antagonist activity at mouse P2X7 receptor expressed in HEK293 cells assessed as inhibition of ATP-induced receptor pore formation at 200 nM by propidium iodide dye uptake based fluorescence analysis; assay type: cell-based; details: filed as antagonist
[23] = Intrinsic clearance in human liver microsomes; assay type: ADME, Microsome; details: read-out: CLH
[24] = system: Mus musculus; assay: Reno-protective activity against LPS-induced acute kidney injury C57BL/6J mouse model assessed as decrease in serum […] level at 10 mg/kg, ip administered twice at 30 mins prior to LPS challenge and 8 hrs post-LPS challenge and measured at 16 hrs post-LPS challenge; assay type: functional, organism-based; details: time 16.5 hrs
[25] = Cmax in BALB/c mouse at 10 mg/kg, iv measured for 24 hrs by LC-MS/MS analysis; assay type: ADME, organism-based; set-up: time 24 hrs, dose 10 mg/kg, route iv; details: in vivo
[26] = Cmax in BALB/c mouse at 10 mg/kg, po measured for 24 hrs by LC-MS/MS analysis; assay type: ADME, organism-based; set-up: time 24 hrs, dose 10 mg/kg, route po; details: in vivo
[27] = target: T2, P2X purinoceptor 7 (Homo sapiens); assay: Antagonist activity at human P2X7 receptor expressed in HEK293 cells assessed as inhibition of ATP-induced receptor pore formation at 1 uM by propidium iodide dye uptake based fluorescence analysis; assay type: cell-based; details: filed as antagonist
[28] = Tmax in BALB/c mouse at 10 mg/kg, ip measured for 24 hrs by LC-MS/MS analysis; assay type: ADME, organism-based; details: in vivo
[29] = target: T4, P2X purinoceptor 7 (Mus musculus, UniProt Q9Z1M0); assay: Antagonist activity at mouse P2X7 receptor expressed in HEK293 cells assessed as inhibition of ATP-induced receptor pore formation by propidium iodide dye uptake based fluorescence analysis; assay type: cell-based
T4 sequence (Q9Z1M0 whole entry): T3 sequence (whole entry)

[30] = Half life in BALB/c mouse at 10 mg/kg, ip measured for 24 hrs by LC-MS/MS analysis; assay type: ADME, organism-based; details: in vivo
[31] = AUC(0 to t) in BALB/c mouse at 10 mg/kg, iv measured for 24 hrs by LC-MS/MS analysis; assay type: ADME, organism-based; set-up: time 24 hrs, dose 10 mg/kg, route iv; details: in vivo
[32] = system: HEK293; assay: Cytotoxicity against human HEK293 cells transfected with mouse P2X7 receptor assessed as effect on cell viability at 1 to 4 uM incubated for 2 hrs by CCK8 assay; assay type: toxicity, cell-based; details: hek293, 2 h, dose 1-4 µM
[33] = target: T1, P2X purinoceptor 7; assay: Antagonist activity at human P2X7 receptor
[34] = target: T4, P2X purinoceptor 7; assay: Antagonist activity at mouse P2X7 receptor

IC50 [1]: 147 nM
half-life [3]: 2.29 h
CL/F [4]: 16.9 mL/min/kg
AUC(0-t) at 24 h [5]: 4390 ng·h/mL
half-life [6]: > 2 h
clearance [7]: 33.2 mL/min/kg
Tmax [9]: 2 h
AUC(0-t) at 24 h [10]: 9930 ng·h/mL
bioavailability [11]: 86.4%
Tmax [12]: 4.8 min
Cmax [14]: 3650 ng/mL
CLint scaled [15]: < 12 mL/min/kg
half-life [16]: > 2 h
inhibition [17]: 42.1%
IC50 [18]: 358 nM
CL/F [19]: 40.8 mL/min/kg
inhibition [20]: 99.5%
half-life [21]: 1.96 h
inhibition [22]: 105%
CLint scaled [23]: < 12 mL/min/kg
Cmax [25]: 3040 ng/mL
Cmax [26]: 776 ng/mL
inhibition [27]: 68%
Tmax [28]: 0.38 h
IC50 [29]: 36.2 nM
half-life [30]: 3.94 h
AUC(0-t) at 24 h [31]: 5080 ng·h/mL
SMILES: CS(=O)(=O)c1ccc(-c2nc(C(=O)NCc3cn(-c4cc(Cl)ccn4)nn3)cs2)cc1
Activity [2]: Non-Toxic
Activity [8]: Active
Activity [13]: Non-Toxic
Activity [24]: Active
Activity [32]: Non-Toxic

IC50 [33]: 1100 nM
IC50 [34]: 1500 nM
SMILES: O=C1C=C(n2cc(CCCl)nn2)C(=O)c2c(O)cccc21

IC50 [33]: 103 nM
SMILES: CC1=C(C(c2ccc(Cl)cc2)n2cc(COCc3ccco3)nn2)C(=O)c2ccccc2C1=O (stereo unspecified)

IC50 [33]: 200 nM
SMILES: O=C(NCc1ccc(Cl)cc1Cl)C1CCC(=O)N1c1ccoc1 (stereo unspecified)
